In brackets after ≈: the same amount, converted by molar mass.
Columns and labels:
[1] = system: L. braziliensis promastigotes infecting murine macrophages; test: Inhibition of infection (parasites pre-incubated with compound, then used to infect macrophages); format: cell-based, Leishmania braziliensis; settings: for Number of Amastigotes per Cell using pre-incubated parasites: untreated 8.9; for Percentage of Infected Macrophages Using Pre-Incubated Parasites: untreated 90.5
Method: (§1) To evaluate the inhibition of infection, promastigotes (5 × 10^6 cells) were first incubated with Compound 28 or AmpB (0, 1.0, 2.5 and 5.0 µg/mL in both cases) for 4 h at 24 °C; these were then used to infect murine macrophages (at a ratio of 10 parasites per macrophage) and incubated for 24 h at 37 °C in 5% CO2. Then, cells were fixed with 4% paraformaldehyde, washed, and stained with Giemsa. The percentage of infected macrophages and the number of recovered amastigotes were determined by counting 200 cells, in triplicate, using an optical microscope.

[2] = system: Leishmania braziliensis stationary promastigotes; test: In vitro antileishmanial activity against promastigotes (MTT); format: cell-based
Method: The study was approved by the Committee for the Ethical Handling of Research Animals from the Federal University of Minas Gerais (protocol number 085/2017). Leishmania braziliensis (MHOM/BR/1975/M2904) promastigotes were grown at 24 °C in Schneider’s medium (Sigma-Aldrich, USA) supplemented with 20% heat-inactivated fetal bovine serum (FBS, Sigma-Aldrich, USA) and 20 mmol/L L-glutamine at pH 7.4 [65].
(§2) The in vitro antileishmanial activity was evaluated by incubating the promastigotes or axenic amastigotes (1 × 10^6 cells/well) with the 24 synthetic derivatives (Compounds 5–28; 0 to 600 µg/mL) in 96-well culture plates (Nunc, Nunclon, Roskilde, Denmark) for 48 h at 24 °C. Due to the difficulty in obtaining a high concentration of murine macrophages, the cytotoxicity experiment was evaluated by incubating such cells (5 × 10^5 per mL) with Compound 28 (0 to 600 µg/mL), which presented the best antileishmanial activity, for 48 h at 37 °C in a 5% CO2 environment. AmpB (0 to 10 µg/mL; Sigma-Aldrich, St. Louis, MO, USA) was used as a positive control in both experiments. The cell viability was assessed using the 3-(4.5-dimethylthiazol-2-yl)-2.5-diphenyl tetrazolium bromide (MTT, Sigma-Aldrich, St. Louis, MO, USA) method. The optical density (OD) values were read using a microplate spectrophotometer (Molecular Devices, Spectra Max Plus, San Jose, CA, USA) at 570 nm. Results were entered into Microsoft Excel (version 10.0) spreadsheets, and the 50% Leishmania and macrophage inhibitory concentrations (IC50 and CC50, respectively) were calculated by applying a sigmoidal regression of the dose–response curve. The SI was calculated by dividing the CC50 with the respective IC50 values.

[3] = system: L. braziliensis-infected macrophages; test: Treatment of infected macrophages; format: cell-based, Leishmania braziliensis; settings: 48 h at 37 °C; for Number of Amastigotes per Cell after treatment: untreated 10.3; for Percentage of Infected Macrophages after Treatment: untreated 92.8
Method: Murine macrophages (5 × 10^5 cells) were plated on round glass coverslips in 24-well plates in RPMI 1640 medium with added 20% FBS and 20 mmol/L L-glutamine at pH 7.4 and incubated for 24 h at 37 °C in 5% CO2. Promastigotes were added to the wells (at a ratio of 10 parasites per macrophage), and cultures were incubated for 48 h at 37 °C in a 5% CO2 environment. Free parasites were removed by extensive washing with RPMI 1640 medium, and the infected macrophages were treated with Compound 28 or AmpB (0, 1.0, 2.5 and 5.0 µg/mL in both cases) for 48 h at 37 °C in 5% CO2.
as §1

[4] = Cytotoxicity in mammalian cells (MTT); format: cell-based; settings: mouse; murine macrophages, 48 h at 37 °C in 5% CO2, MTT, mean ± standard deviation
Method: as §2

[5] = system: Leishmania braziliensis axenic amastigotes; test: In vitro antileishmanial activity against axenic amastigotes (MTT); format: cell-based
Method: To obtain the axenic amastigotes, 1 × 10^9 stationary promastigotes were washed three times in sterile phosphate-buffered saline (PBS) and incubated in 5 mL FBS for 48 h at 37 °C. Parasites were washed with cold PBS, and their morphology was evaluated with an optical microscope after Giemsa staining as previously described.
as §2

[6] = system: L. braziliensis promastigotes; test: ROS production in promastigotes (H2DCFDA); format: cell-based, Leishmania braziliensis; settings: H2O2-incubated promastigotes
Method: After treatment with Compound 28 (at a concentration corresponding to one IC50 value) for 48 h at 24 °C, L. braziliensis promastigotes were washed with PBS, and the parasite concentration was adjusted to 3 × 10^6 cells per well. H2DCFDA (Sigma-Aldrich, St. Louis, MO, USA) was then added and incubated for 30 min in the dark, and samples were read in a fluorometric microplate reader (FLx800, BioTek Instruments, Winooski, VT, USA) with excitation and emission wavelengths of 485 and 528 nm, respectively. Parasites that were untreated or treated with Compound 28 and not labeled with the fluorescent probe were used as the blank.
Figure 4 ΔΨm and ROS production in Leishmania after exposure to Compound 28. Leishmania braziliensis promastigotes were not exposed (negative control) or exposed to Compound 28 (at a concentration corresponding to the IC50 value) for 48 h. (A) Depolarization of ΔΨm was evaluated using the JC-1 fluorescent probe. Samples were analyzed fluorometrically, and the results are expressed as the ratio of red/green fluorescence. FCCP ([…]) was used as a positive control. (B) ROS production was evaluated using the H2DCFDA probe. The fluorescence intensity was measured by fluorimetry, and the results are expressed as the fold increase in the ROS level compared with the non-treated control. H2O2-treated parasites were used as a positive control. […]

[7] = system: L. braziliensis-infected macrophages; test: ROS levels in Leishmania-infected macrophages (H2DCFDA); format: cell-based, Leishmania braziliensis; settings: H2O2 0.02 µg/mL (0.5 µmol/L)
Method: Macrophages (1 × 10^6 cells/mL) were incubated in 96-well culture plates (Nunc, Nunclon, Roskilde, Denmark) and infected with L. braziliensis promastigotes (at a ratio of 10 parasites per cell). The infected macrophages were either left untreated or treated with Compound 28 (at a concentration of 5.0 µg/mL) for 48 h at 37 °C in 5% CO2. The cells were washed with PBS and incubated with 20 μmol/L H2DCFDA (Molecular Probes, Eugene, Oregon, USA) for 30 min in the dark. The fluorescence intensity was measured using a spectrofluorometer (FLx800; BioTek Instruments, Winooski, VT, USA) at 485 nm excitation and 528 nm emission. As a positive control, the infected macrophages were incubated with H2O2 at a concentration of 0.02 µg/mL (0.5 µmol/L). Parasites that were untreated with Compound 28 and not labeled with the fluorescent probe were used as the sample blank.
Figure 3 Production of ROS in L. braziliensis-infected macrophages treated with Compound 28. Leishmania braziliensis-infected macrophages (1 × 10^5 cells) were incubated with Compound 28 (5.0 µg/mL) for 48 h at 37 °C in a 5% CO2 environment. Subsequently, 2′,7′-dichlorodihydrofluorescein diacetate (H2DCFDA, 9.7 μg/mL) was added for 30 min under dark conditions. The fluorescence levels were measured in a spectrofluorometer at 485/528 nm. H2O2 (0.5 µmol/L) was used as a positive control. […]

[8] = system: Leishmania braziliensis promastigotes; test: Depolarization of mitochondrial membrane potential (ΔΨm), JC-1; format: cell-based; settings: FCCP 1.3 µg/mL (5.0 µmol/L) for 20 min; non-treated parasites 7.2
Method: Leishmania braziliensis promastigotes (1 × 10^7 cells/mL) were treated with compound 28 (at a concentration corresponding to one IC50 value) for 48 h at 24 °C. The parasites (3 × 10^6 cells/mL) were then labeled with JC-1 (5 µg/mL, Sigma-Aldrich, St. Louis, MO, USA) for 30 min at 37 °C. After washing twice with PBS to remove the non-internalized dye, the samples were added to a black 96-well plate, and the ΔΨm was analyzed in a spectrofluorometer (FLx800, BioTek Instruments, Winooski, VT, USA) with an excitation filter of 485 nm and emission wavelength of 528 nm and […] to measure the green and red fluorescence, respectively. The ΔΨm was determined using the ratio between the red/green fluorescence intensity. Parasites that were exposed to 1.3 µg/mL (5.0 µmol/L) of FCCP (Sigma-Aldrich, St. Louis, MO, USA) for 20 min were used as a control. […]
Figure 4 ΔΨm and ROS production in Leishmania after exposure to Compound 28. […] (A) Depolarization of ΔΨm was evaluated using the JC-1 fluorescent probe. Samples were analyzed fluorometrically, and the results are expressed as the ratio of red/green fluorescence. […] (B) ROS production was evaluated using the H2DCFDA probe. The fluorescence intensity was measured by fluorimetry, and the results are expressed as the fold increase in the ROS level compared with the non-treated control. […]

[9] = parasites pre-incubated with 2.5 µg/mL at 24 °C
[10] = parasites pre-incubated with 5.0 µg/mL at 24 °C

C[C@@H]1[C@H](O)[C@@H](C)/C=C/C=C/C=C/C=C/C=C/C=C/C=C/[C@H](O[C@@H]2O[C@H](C)[C@@H](O)[C@H](N)[C@@H]2O)C[C@@H]2O[C@](O)(C[C@@H](O)C[C@@H](O)[C@H](O)CC[C@@H](O)C[C@@H](O)CC(=O)O[C@H]1C)C[C@H](O)[C@H]2C(=O)O [Amphotericin B, amphotericin B, reference compound]
Number of Amastigotes per Cell using pre-incubated parasites [1, 9]: 6.5
Percentage of Infected Macrophages Using Pre-Incubated Parasites [1, 9]: 67.6%
Number of Amastigotes per Cell using pre-incubated parasites [1, 10]: 5.3
Percentage of Infected Macrophages Using Pre-Incubated Parasites [1, 10]: 51.4%
Selectivity index (SI), ratio CC50/IC50, promastigotes ([2]; CC50 murine macrophages / IC50 promastigotes): 9.1
IC50 ([2]; Leishmania braziliensis, 48 h at 24 °C, MTT, mean ± standard deviation): 0.974 ± 0.2 µg/mL (≈ 1.05 µM)
Number of Amastigotes per Cell after treatment ([3]; 1.0 µg/mL): 4.2
Percentage of Infected Macrophages after Treatment ([3]; 1.0 µg/mL): 39.1%
Number of Amastigotes per Cell after treatment ([3]; 2.5 µg/mL): 3.5
Percentage of Infected Macrophages after Treatment ([3]; 2.5 µg/mL): 27.6%
Number of Amastigotes per Cell after treatment ([3]; 5.0 µg/mL): 1.8
Percentage of Infected Macrophages after Treatment ([3]; 5.0 µg/mL): 19.8%
CC50 at 48 h [4]: 8.9 ± 0.8 µg/mL (≈ 9.63 µM)
Selectivity index (SI), ratio CC50/IC50, axenic amastigotes ([5]; CC50 murine macrophages / IC50 axenic amastigotes): 6.8
IC50 ([5]; Leishmania braziliensis, 48 h, 48 h at 24 °C, MTT, mean ± standard deviation): 1.3 ± 0.4 µg/mL (≈ 1.41 µM)

OO [Compound H2O2, H2O2, reference compound]
Fold increase in ROS levels compared with untreated parasites (positive control) [6]: 1.6 fold
Increase in ROS production in infected cells (positive control) [7]: 41.4%

N#CC(C#N)=NNc1ccc(OC(F)(F)F)cc1 [FCCP, carbonyl cyanide-p-trifluoromethoxyphenylhydrazone, reference compound]
ΔΨm, JC-1 ratio of red/green fluorescence (positive control) [8]: 3.4

— PMC10459042, “Synthesis of 1,2,3-Triazole-Containing Methoxylated Cinnamides and Their Antileishmanial Activity against the Leishmania braziliensis Species” (Pharmaceuticals, 2023)
